From patent US11214803B2, “Modulators of YAP1 expression” (Ionis Pharmaceuticals, Inc., priority 2019, dated 2022)
Strand notation (5' to 3'): a small letter for the sugar, then the base; units joined by * are phosphorothioate-linked, units joined directly phosphodiester-linked; [ ] holds rarer units or linkages, { } end groups; capitals alone tell only the bases. e = 2'-O-(2-methoxyethyl) (MOE); k = constrained ethyl (cEt); [5mC] = 5-methylcytosine; d = 2'-deoxy (DNA); m = 2'-O-methyl

The substances below were run on Yap1 mRNA (assay: Antisense inhibition of human Yap1 in SNU-449 cells by modified oligonucleotides, single dose (Example 5, RTS36584)). Settings: Table 39; SNU-449 cells, 10,000 cells per well, free uptake, 2,000 nM oligonucleotide, approx. 48 hours; RTS36584; normalized to RIBOGREEN; Yap1 mRNA relative to untreated control.
Type: cell-based
Protocol: Modified oligonucleotides with additional chemistry modifications were designed to target a Yap1 nucleic acid and were tested for their effect on Yap1 mRNA level in SNU-449 cells. The modified oligonucleotides were tested in a series of experiments that had similar culture conditions. Cultured SNU-449 cells at a density of 10,000 cells per well were treated using free uptake with 2,000 nM of modified oligonucleotide. After a treatment period of approximately 48 hours, RNA was isolated from the cells and Yap1 mRNA levels were measured by quantitative real-time RTPCR. Human primer probe set RTS36584 was used to measure mRNA levels. Yap1 mRNA levels were normalized to total RNA content, as measured by RIBOGREEN®. Results are presented in the tables below as percent control of the amount of Yap1 mRNA relative to untreated control cells (% UTC). The modified oligonucleotides with percent control values marked with an asterisk (*) target the amplicon region of the primer probe set. Additional assays may be used to measure the potency and efficacy of the modified oligonucleotides targeting the amplicon region.
Several different chemistry modifications were tested, which are specified in the Chemistry Notation column of the tables below, wherein the notation “d” refers to a 2′-deoxyribose sugar, the notation “s” refers to a phosphorothioate (P═S) internucleoside linkage, the notation “k” refers to a cEt modified sugar, the notation “y” refers to a 2′-O-methyl ribose sugar, the notation “e” refers to a MOE modified sugar, and the notation “^mC” refers to a 5-methylcytosine.
“Start site” indicates the 5′-most nucleoside to which the gapmer is targeted in the human gene sequence. “Stop site” indicates the 3′-most nucleoside to which the gapmer is targeted human gene sequence. […] Activity of the modified oligonucleotide may be defined in a different experiment.

Row | Substance | YAP1 (% UTC)
1 | 1198379 (kA*dG*dT*dA*dT*dG*dT*dG*dG*d[5mC]*dA*kA*eT*kA*eA*kT) [Compound 1198379] | 45
2 | 1198448 (kA*dG*dT*dA*dA*dG*dG*dT*dT*dT*d[5mC]*k[5mC]*e[5mC]*kA*eG*kA) [Compound 1198448] | 36

Same assay, conditions: Table 40 (separate experiment); SNU-449 cells, 10,000 cells per well, free uptake, 2,000 nM oligonucleotide, approx. 48 hours; RTS36584; normalized to RIBOGREEN; Yap1 mRNA relative to untreated control

Row | Substance | YAP1 (% UTC)
3 | 1198442 (kT*dA*dA*dA*dG*dT*dG*dT*dA*dT*dG*kT*e[5mC]*kA*eG*kA; antisense) [Compound 1198442] | 44
4 | 1198749 (kT*eT*kA*dA*dG*d[5mC]*dA*d[5mC]*dT*dT*dT*dT*eA*e[5mC]*kA*kT; antisense) [Compound 1198749] | 73
5 | 1198446 (kA*dA*d[5mC]*dT*dT*dT*dA*dA*dA*dG*dT*kG*eT*kA*eT*kG; antisense) [Compound 1198446] | 83
6 | 1198732 (kT*eA*kT*dA*dA*d[5mC]*dT*dG*dG*dG*d[5mC]*dA*eA*eA*kT*kT; antisense) [Compound 1198732] | 86
7 | 1198803 (antisense kT*eT*kA*dG*dA*d[5mC]*dT*dA*dA*dG*dT*dA*eA*eG*kG*kT) [Compound 1198803] | 62
8 | 1198744 (kA*e[5mC]*kT*dT*dT*dT*dA*d[5mC]*dA*dT*dT*dA*eG*eG*kA*kA; antisense) [Compound 1198744] | 66
9 | 1198745 (k[5mC]*eA*k[5mC]*dT*dT*dT*dT*dA*d[5mC]*dA*dT*dT*eA*eG*kG*kA; antisense) [Compound 1198745] | 57

Same assay, conditions: Table 41; SNU-449 cells, 10,000 cells per well, free uptake, 2,000 nM modified oligonucleotide, approximately 48 hours; RTS36584; normalized to RIBOGREEN; Yap1 mRNA relative to untreated control cells

Row | Substance | YAP1 (% UTC)
10 | 1198644 (kT*kA*dT*dA*dT*dT*dA*dG*dA*dG*dT*dA*kT*eG*kT*eG; antisense) [Compound 1198644] | 73
11 | 1198662 (antisense kT*kT*dT*dG*dG*dA*dA*dG*dA*dT*d[5mC]*dT*kG*eA*kA*eA) [Compound 1198662] | 83

Same assay, conditions: Table 42 (separate experiment); SNU-449 cells, 10,000 cells per well, free uptake, 2,000 nM modified oligonucleotide, approximately 48 hours; RTS36584; normalized to RIBOGREEN; Yap1 mRNA relative to untreated control cells

Row | Substance | YAP1 (% UTC)
12 | 1198210 (kT*kT*dA*dG*dA*dG*dT*dA*dT*dG*dT*eG*eG*e[5mC]*kA*kA; antisense) [Compound 1198210] | 28
13 | 1198650 (kA*kA*d[5mC]*dA*d[5mC]*dT*dG*dA*dG*dG*dT*dA*kT*eA*kA*e[5mC]) [Compound 1198650] | 88

Same assay, conditions: Table 43 experiment; SNU-449 cells, 10,000 cells per well, free uptake, 2,000 nM, approximately 48 hours; RTS36584; Yap1 mRNA normalized to RIBOGREEN, relative to untreated control cells

Row | Substance | YAP1 (% UTC)
14 | 1198463 (antisense kA*kT*dG*dG*dA*dA*dA*dT*dT*dG*dT*e[5mC]*kT*e[5mC]*kA*eT) [Compound 1198463] | 59

Same assay, conditions: Table 44 experiment; SNU-449 cells, 10,000 cells per well, free uptake, 2,000 nM, approximately 48 hours; RTS36584; Yap1 mRNA normalized to RIBOGREEN, relative to untreated control cells

Row | Substance | YAP1 (% UTC)
15 | 1198521 (kA*kT*dG*dT*dA*dA*dT*dA*dT*dT*dG*e[5mC]*kA*eA*kT*e[5mC]; antisense) [Compound 1198521] | 44
16 | 1198907 (kT*k[5mC]*dT*dA*dT*dA*dT*dT*dA*dG*dA*kG*dT*kA*dT*kG; antisense) [Compound 1198907] | 74
17 | 1198518 (kT*kA*dA*dT*dA*dT*dT*dG*d[5mC]*dA*dA*eT*k[5mC]*eT*kG*eT; antisense) [Compound 1198518] | 71
18 | 1198514 (kG*kA*d[5mC]*dA*dA*d[5mC]*dT*d[5mC]*dT*dT*dA*eT*kA*eT*kG*eG; antisense) [Compound 1198514] | 53

Same assay, conditions: Table 45; Yap1 mRNA as percent of untreated control, SNU-449 cells, single dose

Row | Substance | YAP1 (% UTC)
19 | 1198944 (k[5mC]*kT*d[5mC]*dT*dT*dA*dT*dA*dT*dG*dG*kT*dT*kT*dT*kG; antisense) [Compound 1198944] | 34
20 | 1198912 (kA*kA*d[5mC]*dA*d[5mC]*dT*dG*dA*dG*dG*dT*kA*dT*kA*dA*k[5mC]; antisense) [Compound 1198912] | 78
21 | 1198894 (kG*kA*dA*dA*dT*dT*dG*dT*d[5mC]*dT*d[5mC]*kA*dT*kG*d[5mC]*k[5mC]; antisense) [Compound 1198894] | 57
22 | 1198938 (kT*k[5mC]*dA*dG*dA*dT*dT*dT*dA*dG*dG*kA*dT*kG*d[5mC]*kA; antisense) [Compound 1198938] | 59
23 | 1198921 (kT*kT*dA*dA*dG*d[5mC]*dA*d[5mC]*dT*dT*dT*kT*dA*k[5mC]*dA*kT; antisense) [Compound 1198921] | 89

Same assay, conditions: Table 46; Yap1 mRNA as percent of untreated control, SNU-449 cells, single dose

Row | Substance | YAP1 (% UT)
24 | 1198804 (antisense kT*kG*dT*d[5mC]*dT*d[5mC]*dA*dT*dG*d[5mC]*d[5mC]*kT*eT*kA*eT*kA) [Compound 1198804] | 22

Same assay, conditions: Table 48; Yap1 mRNA level relative to untreated control; modified oligonucleotides targeting SEQ ID NO.: 1 and 2

Row | Substance | YAP1 (% UT)
25 | 1198300 (kT*kA*kT*dA*dT*dT*dA*dG*dA*dG*dT*dA*kT*eG*kT*eG; antisense) [Compound 1198300] | 60
26 | 1198295 (kT*kA*kG*dA*dG*dT*dA*dT*dG*dT*dG*dG*k[5mC]*eA*kA*eT; antisense) [Compound 1198295] | 15

Same assay, conditions: Table 49; Yap1 mRNA level relative to untreated control; modified oligonucleotides targeting SEQ ID NO.: 1 and 2

Row | Substance | YAP1 (% UT)
27 | 1198580 (antisense kG*kT*kG*d[5mC]*dT*dT*dT*dG*dG*dA*dA*dG*kA*kT*k[5mC]*eT) [Compound 1198580] | 43

Same assay, conditions: Table 50; Yap1 mRNA remaining as percent of untreated control (UT), SNU-449 cells, single dose

Row | Substance | YAP1 (% UT)
28 | 1197283 (kG*kA*kA*dA*mU*dT*dG*dT*d[5mC]*dT*d[5mC]*dA*dT*kG*k[5mC]*k[5mC]; antisense) [Compound 1197283] | 29
29 | 1198590 (antisense kT*k[5mC]*kA*dG*dA*dT*dT*dT*dA*dG*dG*dA*kT*kG*k[5mC]*eA) [Compound 1198590] | 46
30 | 1198599 (antisense k[5mC]*kA*kA*d[5mC]*dT*d[5mC]*dT*dT*dA*dT*dA*dT*kG*kG*kT*eT) [Compound 1198599] | 90
31 | 1197229 (antisense kG*kG*kA*dA*mA*dT*dT*dG*dT*d[5mC]*dT*d[5mC]*dA*kT*kG*k[5mC]) [Compound 1197229] | 21
32 | 1197294 (kG*k[5mC]*kA*d[5mC]*mU*dT*dT*dT*dA*d[5mC]*dA*dT*dT*kA*kG*kG; antisense) [Compound 1197294] | 25
33 | 1197281 (kA*kT*kT*dG*mU*d[5mC]*dT*dC*dA*dT*dG*d[5mC]*d[5mC]*kT*kT*kA; antisense) [Compound 1197281] | 42
34 | 1198627 (kT*kT*kA*dG*dA*d[5mC]*dT*dA*dA*dG*dT*dA*kA*kG*kG*eT; antisense) [Compound 1198627] | 39
35 | 1197235 (antisense kA*kT*kT*dA*mG*dA*dG*dT*dA*dT*dG*dT*dG*kG*k[5mC]*kA) [Compound 1197235] | 16

Same assay, conditions: Table 51; Yap1 mRNA remaining as percent of untreated control (UT), SNU-449 cells, single dose

Row | Substance | YAP1 (% UT)
36 | 1197268 (kA*kA*kG*dT*mG*dT*dA*dT*dG*dT*d[5mC]*dA*dG*kA*kA*kG) [Compound 1197268] | 25
37 | 1197250 (antisense kT*kT*kG*dG*mA*dA*dG*dA*dT*d[5mC]*dT*dG*dA*kA*kA*k[5mC]) [Compound 1197250] | 60

Same assay, conditions: Table 52; Yap1 mRNA, modified oligonucleotides targeting SEQ ID NO: 1 and 2

Row | Substance | YAP1 (% UT)
38 | 1200845 (k[5mC]*kA*kA*d[5mC]*dT*mC*dT*dT*dA*dT*dA*dT*dG*kG*kT*kT; antisense) [Compound 1200845] | 100
39 | 1200847 (kA*kT*kT*dG*d[5mC]*mA*dA*dT*d[5mC]*dT*dG*dT*d[5mC]*kT*kG*kA; antisense) [Compound 1200847] | 54
40 | 1200853 (kA*kT*kG*dT*dA*mA*dT*dA*dT*dT*dG*d[5mC]*dA*kA*kT*k[5mC]; antisense) [Compound 1200853] | 69

Same assay, conditions: Yap1 mRNA, percent of untreated control; modified oligonucleotides targeting SEQ ID NO: 1 and 2; Table 47

Row | Substance | YAP1 (% UT)
41 | 1097238 (antisense kA*kT*kT*dG*d[5mC]*dA*dA*dT*d[5mC]*dT*dG*dT*d[5mC]*kT*kG*kA) [Compound 1097238] | 77
42 | 1197195 (antisense kT*kT*kT*dA*dG*dG*dA*dT*dG*d[5mC]*dA*dT*dG*kG*kT*kT) [Compound 1197195] | 38
43 | 1197194 (antisense kT*kT*kA*dG*dG*dA*dT*dG*d[5mC]*dA*dT*dG*dG*kT*kT*kT) [Compound 1197194] | 37
